In this assay the target is SARS-CoV-2 3CLpro (Severe acute respiratory syndrome coronavirus 2, UniProt P0DTD1). Put plainly: biochemical. The class given is biochemical. On the set-up: Replicate_1 / Replicate_2 / mean / mean (LOPAC_screen_w_protease): unit not given here. As to conditions: for inhibition at 5 µM: 4 h; for mean (LOPAC screen with protease) / Replicate_1 (LOPAC screen with protease) / Replicate_2 (LOPAC screen with protease): primary screen at 5 µM.

Setting [1] is: LOPAC1280 primary screen with protease, 5 µM compound, mean of two replicates.
[2] abbreviates: LOPAC1280 primary screen with protease, 5 µM compound, replicate 1.
Setting [3] is: LOPAC1280 primary screen with protease, 5 µM compound, replicate 2.
The mark [4] stands for this setting: sheet LOPAC_screen_w_protease, primary screen with protease, mean of two replicates, read-out: mean.
The mark [5] stands for this setting: sheet LOPAC_screen_w_protease, primary screen with protease, replicate 1, read-out: Replicate_1.
[6] abbreviates: sheet LOPAC_screen_w_protease, primary screen with protease, replicate 2, read-out: Replicate_2.
[7] abbreviates: sheet LOPAC_screen_w_protease, mean of two replicates.
The mark [8] stands for this setting: sheet LOPAC_screen_w_protease, replicate 1.
Where [9] appears, read: sheet LOPAC_screen_w_protease, replicate 2.
The mark [10] stands for this setting: LOPAC1280 primary screen with protease, 5 µM compound, replicate 1, read-out: Replicate_1 (LOPAC_screen_w_protease).
Where [11] appears, read: LOPAC1280 primary screen with protease, 5 µM compound, replicate 2, read-out: Replicate_2 (LOPAC_screen_w_protease).
Setting [12] is: sheet LOPAC_screen_w_protease, primary screen with protease, compound at 5 µM, mean of two replicates.
Setting [13] is: sheet LOPAC_screen_w_protease, primary screen with protease, compound at 5 µM, replicate 1.
The mark [14] stands for this setting: sheet LOPAC_screen_w_protease, primary screen with protease, compound at 5 µM, replicate 2.
Setting [15] is: LOPAC1280 primary screen with protease, 5 µM compound, mean of the two replicates.
[16] abbreviates: sheet LOPAC_screen_w_protease, primary screen with protease, mean of two replicates.
The mark [17] stands for this setting: sheet LOPAC_screen_w_protease, primary screen with protease, replicate 1.
The mark [18] stands for this setting: sheet LOPAC_screen_w_protease, primary screen with protease, replicate 2.
The mark [19] stands for this setting: read-out: Replicate_1 (LOPAC_screen_w_protease).
Setting [20] is: read-out: Replicate_2 (LOPAC_screen_w_protease).
Where [21] appears, read: sheet LOPAC_screen_w_protease, LOPAC1280 at 5 µM, mean of two replicates.
The mark [22] stands for this setting: sheet LOPAC_screen_w_protease, LOPAC1280 at 5 µM, replicate 1.
Setting [23] is: sheet LOPAC_screen_w_protease, LOPAC1280 at 5 µM, replicate 2.

Where a name gives a salt, the structure may show the parent alone. Read-outs that look alike come from different tables or passages of the source.

In the case of `O=C1Nc2ccccc2/C1=C1/Nc2ccccc2/C1=N\O` [Indirubin-3'-oxime], the “mean (LOPAC_screen_w_protease)” value under setting [1] came out at 1.392. Also, the “Replicate_1 (LOPAC_screen_w_protease)” value under setting [2] came to 2.012. The “Replicate_2 (LOPAC_screen_w_protease)” value under setting [3] came out at 0.7725.
For the compound `COc1ccc2c(c1)c(CC(=O)N1CCOCC1)c(C)n2C(=O)c1ccc(Cl)cc1` [Indomethacin morpholinylamide], the inhibition at 5 µM is, setting by setting: under setting [4], 2.27%; under setting [5], 2.02%; under setting [6], 2.53%.
Regarding `COc1ccc2c(c1)c(CC(=O)O)c(C)n2C(=O)c1ccc(Cl)cc1` [Indomethacin], the Replicate_1 was determined as 3.273, the Replicate_2 is on record as 1.395 and the mean worked out at 2.334.
As for `NC(=O)CI` [Iodoacetamide], the “mean (LOPAC screen with protease)” value under setting [7] came out at 17.6073. Also, the “Replicate_1 (LOPAC screen with protease)” value under setting [8] is 16.5057. In addition, under setting [9], the “Replicate_2 (LOPAC screen with protease)” value came to 18.7088.
As to `CC(C)NC(C)Cc1ccc(I)cc1` (stereo not drawn) [Iofetamine hydrochloride], the inhibition at 5 µM was found to be 3.54% (read-out: Replicate_1), 3.79% (read-out: Replicate_2) and 3.67% (read-out: mean).
In the case of `CC(C)[N+]1(C)[C@@H]2CC[C@H]1C[C@@H](OC(=O)C(CO)c1ccccc1)C2` (stereo partly drawn) [Ipratropium bromide], the inhibition at 5 µM reads like this: under setting [10], 1.02%; under setting [11], 1.99%. In addition, the “mean (LOPAC_screen_w_protease)” value under setting [1] is on record as 1.504.
Under setting [12], `CC(C)NNC(=O)c1ccncc1.O=P(O)(O)O` [Iproniazid phosphate] yielded a mean of 2.591. In addition, the Replicate_1 under setting [13] is 1.295. Also, under setting [14], the Replicate_2 was 3.887.
Take `O=C(O)C1=CCNCC1` [Isoguvacine hydrochloride]: the inhibition at 5 µM stood at 2.64% under setting [10] and 1.29% under setting [11]. Besides, the “mean (LOPAC_screen_w_protease)” value under setting [15] is given as 1.964.
The like results for `O=C(O)C1CCNCC1` [Isonipecotic acid] were, in that order, 4.55%, -0.611% and 1.97.
On to `CCC(NC(C)C)C(O)c1ccc(O)c(O)c1.CS(=O)(=O)O` (stereo not drawn) [Isotharine mesylate], for which the “mean (LOPAC screen with protease)” value under setting [7] is on record as 8.447. For the same compound, the “Replicate_1 (LOPAC screen with protease)” value under setting [8] stood at 8.4794. Further, the “Replicate_2 (LOPAC screen with protease)” value under setting [9] came out at 8.416.
For the compound `Nc1nc2[nH]c(=O)cnc2c(=O)[nH]1` [Isoxanthopterin], the inhibition at 5 µM is, setting by setting: under setting [4], 2.42%; under setting [5], 3.73%; under setting [6], 1.11%.
With `CC[C@H](C)[C@H]1O[C@]2(CC[C@@H]1C)C[C@@H]1C[C@@H](C/C=C(\C)[C@@H](O[C@H]3C[C@H](OC)[C@@H](O[C@H]4C[C@H](OC)[C@@H](O)[C@H](C)O4)[C@H](C)O3)[C@@H](C)/C=C/C=C3\CO[C@@H]4[C@H](O)C(C)=C[C@@H](C(=O)O1)[C@]34O)O2` [Ivermectin], the mean under setting [12] was found to be 2.889. Moreover, the Replicate_1 under setting [13] stood at 2.826. For the same compound, the Replicate_2 under setting [14] was 2.952.
For the compound `CCCn1c(C)c(C(=O)c2cccc3ccccc23)c2ccccc21` [JWH-015], under setting [1], the “mean (LOPAC_screen_w_protease)” value is on record as 1.386. Moreover, the “Replicate_1 (LOPAC_screen_w_protease)” value under setting [2] is on record as 1.748. Also, under setting [3], the “Replicate_2 (LOPAC_screen_w_protease)” value is reported as 1.024.
`CCCC(=O)NCCc1c2n(c3ccc(OC)cc13)CCCc1ccccc1-2` [K 185] gave a mean under setting [16] of 2.196. The compound further registered a Replicate_1 under setting [17] of 2.886. Under setting [18], this compound returned a Replicate_2 of 1.507.
`C=C(C)[C@H]1CN[C@H](C(=O)O)[C@H]1CC(=O)O` [Kainic acid]: the “mean (LOPAC_screen_w_protease)” value was determined as 1.974. The inhibition at 5 µM under setting [19] turned out to be 1.88%. The inhibition at 5 µM under setting [20] is 2.07%.
Regarding `CCN1C[C@]2(C)CC[C@H](O)[C@]34C1[C@@H](C[C@H]23)[C@@]1(O)C[C@H](OC)[C@H]2C[C@@H]4[C@@H]1[C@H]2O` [Karakoline], the “mean (LOPAC_screen_w_protease)” value worked out at 1.99. The inhibition at 5 µM under setting [19] was 1.52%. Besides, the inhibition at 5 µM under setting [20] turned out to be 2.46%.
For `O=C1Cc2c([nH]c3ccc(Br)cc23)-c2ccccc2N1` [Kenpaullone], the inhibition at 5 µM runs as follows: (read-out: Replicate_1) 1.52%; (read-out: Replicate_2) 3.46%; (read-out: mean) 2.49%.
`O=C(c1ccc(F)cc1)C1CCN(CCn2c(=O)[nH]c3ccccc3c2=O)CC1` [Ketanserin tartrate]: the inhibition at 5 µM is, setting by setting: (sheet LOPAC_screen_w_protease, LOPAC1280 primary screen at 5 µM, with protease, mean of two replicates, read-out: mean) -1.02%; (sheet LOPAC_screen_w_protease, LOPAC1280 primary screen at 5 µM, with protease, replicate 1, read-out: Replicate_1) 1.01%; (sheet LOPAC_screen_w_protease, LOPAC1280 primary screen at 5 µM, with protease, replicate 2, read-out: Replicate_2) -3.04%.
Turning to `NC(CO)(CO)CO.O=C(c1ccccc1)c1ccc2n1CCC2C(=O)O` (stereo not drawn) [Ketorolac tris salt], the “mean (LOPAC_screen_w_protease)” value under setting [1] is listed as 1.7087. For the same compound, the “Replicate_1 (LOPAC_screen_w_protease)” value under setting [2] is on record as 1.974. The “Replicate_2 (LOPAC_screen_w_protease)” value under setting [3] is 1.443.
For the compound `CN1CCC(=C2c3ccccc3CC(=O)c3sccc32)CC1` [Ketotifen fumarate], the inhibition at 5 µM amounted to 3.16% (sheet LOPAC_screen_w_protease, primary screen of LOPAC1280 at 5 µM with protease, mean of the two replicates, read-out: mean); 4.97% (sheet LOPAC_screen_w_protease, primary screen of LOPAC1280 at 5 µM with protease, replicate 1, read-out: Replicate_1); 1.34% (sheet LOPAC_screen_w_protease, primary screen of LOPAC1280 at 5 µM with protease, replicate 2, read-out: Replicate_2).
`O=C(O)c1cc(=O)c2ccccc2[nH]1` [Kynurenic acid]: the inhibition at 5 µM by setting is: under setting [10], 3.13%; under setting [11], 0.793%. Also, the “mean (LOPAC_screen_w_protease)” value under setting [15] was 1.961.
Under setting [21], `N[C@@H](CCCC(=O)O)C(=O)O` [L-2-aminoadipic acid] returned a mean of 0.8841. This compound gave a Replicate_1 under setting [22] of 1.166. Besides, under setting [23], the Replicate_2 is 0.6027.
On to `N[C@@H](Cc1ccc(O)c(O)c1)C(=O)O` [L-3,4-Dihydroxyphenylalanine], for which the mean (sheet LOPAC_screen_w_protease, LOPAC1280 primary screen with protease, 5 µM compound, mean of the two replicates) amounted to 4.21. The same compound displayed a Replicate_1 (sheet LOPAC_screen_w_protease, LOPAC1280 primary screen with protease, 5 µM compound, replicate 1) of 5.679. The compound also gave a Replicate_2 (sheet LOPAC_screen_w_protease, LOPAC1280 primary screen with protease, 5 µM compound, replicate 2) of 2.742.
Take `CCCCOC(=O)NS(=O)(=O)c1sc(CC(C)C)cc1-c1ccc(Cn2c(CC)nc3c(C)cc(C)nc32)cc1` [L-162,313]: the “mean (LOPAC_screen_w_protease)” value under setting [15] came out at 1.8394. In addition, the “Replicate_1 (LOPAC_screen_w_protease)” value under setting [2] was 2.383. Also, the “Replicate_2 (LOPAC_screen_w_protease)” value under setting [3] came to 1.2958.
Turning to `CCCc1c(OCCCOc2ccc(OCC(=O)O)cc2)ccc(C(C)=O)c1O` [L-165,041], the “mean (LOPAC screen with protease)” value under setting [7] was found to be 13.6599. Under setting [8], the “Replicate_1 (LOPAC screen with protease)” value is on record as 14.4944. Moreover, the “Replicate_2 (LOPAC screen with protease)” value under setting [9] is 12.8255.
Under setting [16], `Cc1ccccc1N1CCN(S(=O)(=O)CC23CCC(CC2NC(=O)C(N)CCS(C)(=O)=O)C3(C)C)CC1.Cl` [L-368,899] registered a mean of 2.3895. For the same compound, the Replicate_1 under setting [17] is 2.509. Under setting [18], the Replicate_2 was 2.27.
Consider `Cc1c(CC(C)(C)C(=O)O)n(Cc2ccc(Cl)cc2)c2ccc(F)cc12` [L-655,240], for which the “mean (LOPAC_screen_w_protease)” value under setting [1] is listed as 1.677. The “Replicate_1 (LOPAC_screen_w_protease)” value under setting [2] worked out at 2.414. Further, the “Replicate_2 (LOPAC_screen_w_protease)” value under setting [3] turned out to be 0.9392.
With `CCOC(=O)c1ncn2c1[C@@H]1CCCN1C(=O)c1cc(OC)ccc1-2` [L-655,708], the mean under setting [21] is listed as 1.109. This compound also came in with a Replicate_1 under setting [22] of 1.0635. This compound also came in with a Replicate_2 under setting [23] of 1.155.
As for `Cl.c1ccc(CN2CCC3(CCCc4ccccc43)CC2)cc1` [L-687,384 hydrochloride], the mean (sheet LOPAC_screen_w_protease, LOPAC1280 primary screen at 5 µM, with protease, mean of the two replicates) amounted to 0.6815. Besides, the Replicate_1 (sheet LOPAC_screen_w_protease, LOPAC1280 primary screen at 5 µM, with protease, replicate 1) is 0.6204. This compound also yielded a Replicate_2 (sheet LOPAC_screen_w_protease, LOPAC1280 primary screen at 5 µM, with protease, replicate 2) of 0.7425.
For the compound `O=c1[nH]c2cc(Cl)ccc2c(O)c1-c1cccc(Oc2ccccc2)c1` [L-701,324], under setting [16], the mean is given as 2.464. The Replicate_1 under setting [17] is 2.862. Also, the Replicate_2 under setting [18] is given as 2.066.
In turn, `Ic1ccccc1CNC1C2CCN(CC2)C1C(c1ccccc1)c1ccccc1.O=C(O)C(=O)O` [L-703,606 oxalate] showed a mean (sheet LOPAC_screen_w_protease, primary screen of LOPAC1280 at 5 µM with protease, mean of the two replicates) of 3.6584. Besides, the Replicate_1 (sheet LOPAC_screen_w_protease, primary screen of LOPAC1280 at 5 µM with protease, replicate 1) is on record as 4.135. This compound also had a Replicate_2 (sheet LOPAC_screen_w_protease, primary screen of LOPAC1280 at 5 µM with protease, replicate 2) of 3.181.
